Experimental data taken from PMC7857637, “The three NADH dehydrogenases of Pseudomonas aeruginosa: Their roles in energy metabolism and links to virulence” (PLoS ONE, 2021).

Biological target: T1, NQR complex (pHERD28C-NQR) (Pseudomonas aeruginosa, UniProt Q9HZK7+Q9HZK8)
T1 construct: gene nqrB; complete nqr operon on pHERD28C plasmid, C-terminal His tag on NqrF, expressed in P. aeruginosa, partially purified on Ni-NTA; with Na(+)-translocating NADH-quinone reductase subunit A; Na(+)-translocating NADH-quinone reductase subunit D; Na(+)-translocating NADH-quinone reductase subunit E; Na(+)-translocating NADH-quinone reductase subunit F
T1 sequence (Q9HZK7 whole entry): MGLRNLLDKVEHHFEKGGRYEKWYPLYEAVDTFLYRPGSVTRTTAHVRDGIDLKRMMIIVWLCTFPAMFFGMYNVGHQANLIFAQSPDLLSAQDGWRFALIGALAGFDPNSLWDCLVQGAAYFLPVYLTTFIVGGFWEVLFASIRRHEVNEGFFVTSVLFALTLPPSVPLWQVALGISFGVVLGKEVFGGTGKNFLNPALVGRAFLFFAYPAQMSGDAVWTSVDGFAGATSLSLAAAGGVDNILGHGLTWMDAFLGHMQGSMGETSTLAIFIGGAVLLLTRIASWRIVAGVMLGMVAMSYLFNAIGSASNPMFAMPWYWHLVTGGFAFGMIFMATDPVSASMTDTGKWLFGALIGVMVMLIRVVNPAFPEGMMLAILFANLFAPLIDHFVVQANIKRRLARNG
T1 sequence (Q9HZK8 whole entry): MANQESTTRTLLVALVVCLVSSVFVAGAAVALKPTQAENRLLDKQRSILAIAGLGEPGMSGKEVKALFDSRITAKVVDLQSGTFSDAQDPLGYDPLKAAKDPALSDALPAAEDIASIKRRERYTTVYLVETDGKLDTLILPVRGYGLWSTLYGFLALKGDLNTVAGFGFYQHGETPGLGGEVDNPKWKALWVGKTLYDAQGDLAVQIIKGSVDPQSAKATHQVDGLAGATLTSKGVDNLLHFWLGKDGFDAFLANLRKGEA
T1 sequence (Q9HZL1 whole entry partner): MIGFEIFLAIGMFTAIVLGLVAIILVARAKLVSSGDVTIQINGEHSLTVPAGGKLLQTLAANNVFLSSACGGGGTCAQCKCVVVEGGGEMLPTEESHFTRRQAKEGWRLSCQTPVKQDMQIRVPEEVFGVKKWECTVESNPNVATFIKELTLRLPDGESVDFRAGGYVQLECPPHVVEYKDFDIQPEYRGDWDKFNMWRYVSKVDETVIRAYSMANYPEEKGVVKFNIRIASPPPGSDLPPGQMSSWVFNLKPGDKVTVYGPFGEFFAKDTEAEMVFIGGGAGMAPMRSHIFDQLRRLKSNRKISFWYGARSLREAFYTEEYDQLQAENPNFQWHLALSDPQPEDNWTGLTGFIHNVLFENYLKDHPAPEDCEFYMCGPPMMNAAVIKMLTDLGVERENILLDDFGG
T1 sequence (Q9HZK6 whole entry partner): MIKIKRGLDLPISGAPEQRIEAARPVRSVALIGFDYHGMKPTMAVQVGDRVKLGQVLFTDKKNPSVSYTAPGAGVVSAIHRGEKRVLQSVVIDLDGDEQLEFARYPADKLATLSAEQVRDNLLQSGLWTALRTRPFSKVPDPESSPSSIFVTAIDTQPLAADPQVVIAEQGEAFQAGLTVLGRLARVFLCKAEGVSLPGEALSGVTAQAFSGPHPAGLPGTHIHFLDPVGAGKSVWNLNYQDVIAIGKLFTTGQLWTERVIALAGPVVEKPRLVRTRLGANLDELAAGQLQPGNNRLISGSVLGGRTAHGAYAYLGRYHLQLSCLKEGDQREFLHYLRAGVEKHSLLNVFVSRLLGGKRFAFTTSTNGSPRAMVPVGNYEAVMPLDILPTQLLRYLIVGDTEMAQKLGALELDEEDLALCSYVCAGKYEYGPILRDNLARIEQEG
T1 sequence (Q9HZK9 whole entry partner): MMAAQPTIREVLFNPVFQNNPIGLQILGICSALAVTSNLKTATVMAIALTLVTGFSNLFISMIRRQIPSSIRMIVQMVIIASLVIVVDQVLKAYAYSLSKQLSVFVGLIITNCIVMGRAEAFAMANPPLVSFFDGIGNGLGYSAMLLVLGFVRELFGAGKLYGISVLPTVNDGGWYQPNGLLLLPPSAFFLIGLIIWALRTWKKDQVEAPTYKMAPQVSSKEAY
T1 sequence (Q9HZL0 whole entry partner): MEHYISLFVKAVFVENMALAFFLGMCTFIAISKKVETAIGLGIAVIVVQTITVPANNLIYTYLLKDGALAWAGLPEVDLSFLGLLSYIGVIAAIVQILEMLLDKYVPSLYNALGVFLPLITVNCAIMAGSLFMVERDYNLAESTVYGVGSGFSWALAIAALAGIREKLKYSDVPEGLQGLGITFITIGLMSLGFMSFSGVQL
Assay: in-gel flavin fluorescence of the partially purified complex (SDS gel under UV)
Format: binding
Conditions: covalent (retained on SDS gel); bands of subunits NqrB and NqrC

SMILES: Cc1cc2nc3c(=O)[nH]c(=O)nc-3n(C[C@H](O)[C@H](O)[C@H](O)COP(=O)(O)O)c2cc1C [FMN]
- in-gel flavin fluorescence of the partially purified complex (SDS gel under UV): two fluorescent bands characteristic of the FMN cofactors of the NqrB and NqrC subunits
